From US9351950B2, “Method for preventing or treating allergic disease using capsiate or salt thereof” (CATHOLIC UNIVERSITY OF KOREA INDUSTRY-ACADEMIC COOPERATION …, priority 2014, dated 2016)

Columns and labels:
[1] = tested on: activated human mast cell line (HMC-1 cells); assay: Real-time PCR of cytokine transcripts in activated HMC-1 cells; format: cell-based; conditions: 50 μM, 37° C., 4 hours; HMC-1 cells activated with A23187 and PMA; normalized with GAPDH
Experimental: HMC-1 cells were grown in IMDM media supplemented with 100 U/ml of penicillin, 100 µg/ml of streptomycin, and 10% heat-inactivated FBS in an incubator containing 5% CO2 at 37° C. HMC-1 cells were activated by treatment with A23187 and PMA
In order to understand the inhibitory effect of capsiate on the increase of cytokines in activated HMC-1 cells, HMC-1 cells were treated with 50 μM of capsiate and capsaicin at 37° C. for 4 hours, respectively, and the transcript expressions of cytokines IL-6 and TNF-α were confirmed through real-time PCR. Total RNA was isolated from HMC-1 cells with RNeasy Mini kit (Quiagen, Valencia, Calif., USA) and the first strand of cDNA was synthesized using QuantTect Reverse Transcription kit (Quiagen, Germany). Real-time PCR was performed using KAPA SYBR fast qPCR kit (KAPA Blosystems, Woburn, Mass., USA). The following parameters were used for the PCR: 95° C. for 10 minutes, followed by 50 cycles of 95° C. for 20 seconds, 55° C. for 30 seconds, and 72° C. for 20 seconds. The gene expression levels were normalized with GAPDH expression level. The primer sets for IL-6 and TNF-α were purchased from QIAGEN.

[2] = tested on: activated human mast cell line (HMC-1 cells); assay: ELISA of cytokines in activated HMC-1 cells; format: cell-based; conditions: 50 μM, 37° C., 16 hours
Experimental: (§1) HMC-1 cells were grown in IMDM media supplemented with 100 U/ml of penicillin, 100 µg/ml of streptomycin, and 10% heat-inactivated FBS in an incubator containing 5% CO2 at 37° C. HMC-1 cells were activated by treatment with A23187 and PMA In order to understand the inhibitory effect of capsiate on the increase of cytokines in activated HMC-1 cells, HMC-1 cells were treated with 50 μM of capsiate and capsaicin at 37° C. for 16 hours, and the expression levels of cytokines IL-6 and TNF-α were confirmed through ELISA assay. Capture antibody was added in ELISA plate and incubated overnight 4° C. Next day, the capture antibody was washed with PBS/Tween buffer, and blocking buffer was added. After 1 hr incubation at room temperature, the blocking buffer was washed out and standard or sample supernatant was added. The plate was incubated overnight at 4° C. and washed out. After washing, detection antibody was added and incubated for 1 hr at room temperature, followed by washing the plate. Streptavidin-HRP was added to each well, incubated at room temperature for 30 mins, and then the plate was washed. TMB was used as a substrate. After TMB was added to the plate, stop solution was added to stop color development, and the plate was read using ELISA reader.

[3] = tested on: activated mouse bone marrow derived mast cells (BMMCs); assay: Real-time PCR of cytokine transcripts in activated BMMCs; format: cell-based; conditions: 50 μM, 37° C., 4 hours; BMMCs activated by anti-mouse DNP-IgE and DNP-HSA
Experimental: (§2) Bone marrow cells were obtained from tibias and femurs of approximately 8 to 10 week old C57/BL/6 mice and cultured in RPMI 1640 media supplemented with 10% FCS, 100 U/ml of penicillin, 100 μg/ml of streptomycin in the presence of mIL-3 (10 ng/ml) and mSCF (50 ng/ml) for 6 weeks in an incubator containing 5% CO2 at 37° C. […] BMMC were activated by 1 μg/ml of anti-mouse DNP-IgE for overnight, followed by the treatment with 10 ng/ml of DNP-HSA for 6 hr to 24 hr.
In order to understand the inhibitory effect of capsiate on the increase in cytokines in activated BMMCs, BMMCs were treated with 50 μM of capsiate at 37° C. for 4 hours, and the transcript expressions of cytokines IL-6 and TNF-α were confirmed through real-time PCR. Total RNAs were isolated from […] with RNeasy Mini kit (Quiagen, Valencia, Calif., USA) and the first strand of cDNA was synthesized using QuantTect Reverse Transcription kit (Quiagen, Germany). Real-time PCR was performed using KAPA SYBR fast qPCR kit (KAPA Blosystems, Woburn, Mass., USA). The following parameters were used for the PCR: 95° C. for 10 mins, followed by 50 cycles of 95° C. for 20 s, 55° C. for 30 s, and 72° C. for 20s. The gene expression levels were normalized with GAPDH expression level. The primer sets for IL-6 and TNF-α were purchased from QIAGEN.

[4] = tested on: activated mouse bone marrow derived mast cells (BMMCs); assay: ELISA of cytokines in activated BMMCs; format: cell-based; conditions: 50 μM, 37° C., 16 hours
Experimental: as §2
as §1, with “In order” for “HMC-1 cells were grown in IMDM media supplemented with 100 U/ml of penicillin, 100 µg/ml of streptomycin, and 10% heat-inactivated FBS in an incubator containing 5% CO2 at 37° C. HMC-1 cells were activated by treatment with A23187 and PMA In order”, “in activated BMMCs, BMMCs were treated” for “in activated HMC-1 cells, HMC-1 cells were treated”, “of capsiate at 37°” for “of capsiate and capsaicin at 37°”, “Capture antibody for IL-6 or TNF-α was added” for “Capture antibody was added”, “detection antibody for IL-6 and TNF-α was added” for “detection antibody was added”

[5] = tested on: atopic dermatitis induced by 2,4-dinitro-1-fluorobenzene (DNFB) in mice; assay: Atopic dermatitis induced by DNFB in mice, histological staining and epidermal thickness; format: in vivo; conditions: 1 mM capsiate in acetone coated 1 hour before DNFB treatment
Experimental: (§3) DNFB was sensitized by being diluted to 0.15% with a vehicle in which acetone and olive oil are mixed in a ratio of 3:1. Atopic dermatitis was induced by treating twice with a 0.2% DNFB solution. The capsiate-treated group was coated with 1 mM capsiate dissolved in acetone, 1 hour before DNFB treatment (See FIG. 5).
After being cut with induced atopic dermatitis, the skin tissue was fixed in 4% formaldehyde for 24 hours, followed by washing and dehydration, and then a […] skin section was prepared using a paraffin block. The tissue section was deparaffinized with xylene, immerged in alcohol, and then stained with hematoxyline and eosin. After the staining, the tissue was observed using a phase contrast microscope. As for the dermal thickness, the dermal thicknesses at five places on the tissue image were measured, and the mean and standard deviation thereof were obtained and shown on a graph.

[6] = tested on: serum IgE; assay: Serum IgE level (ELISA) in atopic dermatitis mouse model induced by DNFB; format: in vivo, mice
Experimental: as §3
IgE capture antibody was added in the plate, and allowed to stand at 4° C. overnight. The next day, the capture antibody was washed with PBS/Tween buffer, and blocking buffer was added, followed by reaction at room temperature for 1 hour. After the blocking buffer was washed out, IgE standard and mouse serum were added, followed by standing at 4° C. overnight. The next day, after washing was performed, the IgE detection antibody was added, followed by reaction at room temperature for 1 hour. After washing was again performed, Streptavidin-HRP was added, followed by a reaction at room temperature for 30 minutes. After washing was again performed, TMB as a substrate was added. Then, a stop solution was added, and the absorbance was measured using an ELISA reader.

[7] = tested on: atopic dermatitis sites of mice; assay: Cytokine expression (real-time PCR) in mouse atopic dermatitis sites; format: in vivo; conditions: atopic dermatitis site, 1 mM capsiate, dosing as in example 3-1
Experimental: as §3
(§4) The cytokine inhibitory effect of capsiate was verified at atopic dermatitis sites of mice. The dosing concentrations of DNFB and capsiate were the same as in example <3-1> above, and the transcript expressions of cytokines IL-4 and TSLP were confirmed through real-time PCR. Real-time PCR conditions were established by the same method as in example <1-2> above, and the primer set was purchased from QIAGEN.

[8] = tested on: atopic dermatitis sites of mice; assay: Chemokine expression (real-time PCR) in mouse atopic dermatitis sites; format: in vivo; conditions: atopic dermatitis site, 1 mM capsiate, dosing as in example 3-1
Experimental: as §3
as §4, with “chemokine” for “cytokine”, “in” for “was verified at”, “mice was verified.” for “mice.”, “chemokines CCL11, CCL17,” for “cytokines IL-4”, “CCL22” for “TSLP”

[9] = tested on: Th2 cell differentiation, lymph node; assay: Th2 cell differentiation in lymph node of atopic dermatitis mouse model; format: in vivo, mice; conditions: lymph node cells; intracellular staining CD4, IL-4, IL-5; dosing as in example 3-1
Experimental: as §3
(§5) After lymphocytes were taken out from mice, a single cell suspension was prepared, and then 3 μg/ml of anti-CD28 antibody was added in the plate to which anti-CD3 antibody adheres, followed by incubation for 3 days. On the third day, PMA (20 ng/ml) and ionomycin (1 μM) were added, followed by incubation for 5 hours. The cells were collected, and then subjected to intracellular staining using Cytofix/Cytoperm kit (BD bioscience) and anti-CD4 antibody, anti-IL-4 antibody, and anti-IL-5 antibody (BD bioscience). The dosing concentrations of DNFB and capsiate were the same as in example <3-1> above.

[10] = tested on: Th2 cell differentiation, spleen; assay: Th2 cell differentiation in spleen of atopic dermatitis mouse model; format: in vivo, mice; conditions: spleen cells; intracellular staining CD4, IL-4, IL-5; dosing as in example 3-1
Experimental: as §3
as §5, with “the spleen was” for “lymphocytes were”

[11] = tested on: passive cutaneous anaphylaxis (PCA); assay: Passive cutaneous anaphylaxis (PCA): capillary vessel permeability and mouse ear thickness; format: in vivo
Experimental: The passive cutaneous anaphylaxis inhibitory effect of capsiate was verified by measuring capillary vessel permeability and mouse ear thickness. The capillary vessel permeability was verified by intravenously injecting Evan's blue, which is a blue staining agent, mixed with antigen, and quantifying the staining agent coming out from ear capillary vessels to the skin tissue. The quantification was conducted by cutting the ear tissue, putting the cut ear tissue in formamide, performing incubation at 65° C. for 16 hours, extracting Evan's blue in the ear tissue, and measuring the absorbance. The mouse ear thickness was measured using D15 ear thickness gauge.

[12] = tested on: BMCC induced with IgE antigen; assay: Pro-inflammatory cytokine expression (real-time PCR) in BMCC induced with IgE antigen; format: cell-based, mouse
Description: The inflammatory cytokine expression inhibitory effect of capsiate was verified in BMCC induced with IgE antigen. The transcript expressions of cytokines IL-1β, IL-6, and TNF-α were verified through real-time PCR. Real-time PCR conditions were established by the same method as in example <1-2> above, and the primer set was purchased from QIAGEN.

COc1cc(CNC(=O)CCCC/C=C/C(C)C)ccc1O [capsaicin, reference compound]
increased: transcript expression of IL-6 (real-time PCR) [1] | transcript expression of TNF-α (real-time PCR) [1] | expression level of IL-6 (ELISA) [2] | expression level of TNF-α (ELISA) [2] | transcript expression of IL-6 (real-time PCR) [3] | transcript expression of TNF-α (real-time PCR) [3] | expression level of IL-6 (ELISA) [4] | expression level of TNF-α (ELISA) [4]

COc1cc(COC(=O)CCCC/C=C/C(C)C)ccc1O [capsiate]
decreased: dermal thickness increased by DNFB ([5]; H&E stained skin section) | level of serum IgE increased due to DNFB [6] | transcript expression of IL-4 increased by DNFB [7] | transcript expression of TSLP increased by DNFB [7] | transcript expression of CCL11 increased by DNFB [8] | transcript expression of CCL17 increased by DNFB [8] | transcript expression of CCL22 increased by DNFB [8] | transcript expression of IL-1β increased by IgE antigen [12] | transcript expression of IL-6 increased by IgE antigen [12] | transcript expression of TNF-α increased by IgE antigen [12]
significantly decreased: transcript expression of IL-6 (real-time PCR) [1] | transcript expression of TNF-α (real-time PCR) [1] | expression level of IL-6 (ELISA) [2] | expression level of TNF-α (ELISA) [2] | transcript expression of IL-6 (real-time PCR) [3] | transcript expression of TNF-α (real-time PCR) [3] | expression level of IL-6 (ELISA) [4] | expression level of TNF-α (ELISA) [4]
inhibited: atopic dermatitis induced by DNFB in the mice [5] | Th2 cell differentiation increased by DNFB at the lymph node [9] | Th2 cell differentiation increased by DNFB in the spleen [10] | capillary vessel permeability increased by DNP IgE ([11]; Evan's blue extracted from mouse ear tissue, absorbance) | ear edema increased by DNP IgE ([11]; mouse ear thickness, ear thickness gauge)
